# In patent US12084473B2, “β-D-2′-deoxy-2′-α-fluoro-2′-β-C-substituted-2-modified-N6-substituted purine nucleotides for HCV treatment” (Atea Pharmaceuticals, Inc., priority 2015, dated 2024):
# How the values were obtained:
# [1] = tested on: HCV genotype 1b luciferase reporter replicon; experiment: microbe, parasite or virus in culture; assay type: cell-based
# Protocol: (§1) The plates were cultured for 24 hours prior to the addition of compounds. Six serial one half log dilutions of the test articles (high test concentration of 100.0 μM or high test concentration of 1.0 μM) and human interferon-alpha2b (high test 10.0 U/ml) were prepared in cell culture medium and added to the cultured cells in triplicate wells for each dilution. Six wells in the test plates received medium alone as an untreated control. Following 72 hours of culture in the presence of compound, one of the plates was used for the determination of cytotoxicity by staining with XTT and the other for antiviral efficacy by determination of luciferase reporter activity. Cytotoxicity and efficacy data were collected and imported into a customized Excel workbook for determination of the TC50 and EC50 values. […] The y-axis is the percent of virus control and the x-axis is the concentration of drug in μM. […] The y-axis is the percent of virus control and the x-axis is the concentration of drug in M.
# [2] = tested on: HCV Genotype 1a, NS5B Mutation none; experiment: microbe, parasite or virus in culture; assay type: cell-based
# Protocol: (§2) Various patient-derived HCV genotypes containing wild-type and resistance-associated variants were used to determine their relative replication sensitivity to test compounds. Replicon resistance test vectors (RTVs) containing the NS5B genomic regions were prepared using viral RNA isolated from plasma of HCV patients. Each NS5B region was amplified by reverse-transcription polymerase chain reaction and cloned into an HCV replicon RTV which was then transferred by electroporation into Huh-7 cells.
# [3] = tested on: HCV Genotype 4a, NS5B Mutation none; experiment: microbe, parasite or virus in culture; assay type: cell-based
# Protocol: as §2
# [4] = tested on: HCV Genotype 2b, NS5B Mutation none; experiment: microbe, parasite or virus in culture; assay type: cell-based
# Protocol: as §2
# [5] = tested on: HCV Genotype 3a-1, NS5B Mutation none; experiment: microbe, parasite or virus in culture; assay type: cell-based
# Protocol: as §2
# [6] = tested on: HCV Genotype 2a, NS5B Mutation none; experiment: microbe, parasite or virus in culture; assay type: cell-based
# Protocol: as §2
# [7] = tested on: HCV Genotype 1a, NS5B Mutation L159F; experiment: microbe, parasite or virus in culture; assay type: cell-based
# Protocol: as §2
# [8] = tested on: HCV Genotype 1b, NS5B Mutation C316N; experiment: microbe, parasite or virus in culture; assay type: cell-based
# Protocol: as §2
# [9] = tested on: HCV Genotype 1a, NS5B Mutation L159F and S282T; experiment: microbe, parasite or virus in culture; assay type: cell-based
# Protocol: as §2
# [10] = tested on: HCV Genotype 4d, NS5B Mutation none; experiment: microbe, parasite or virus in culture; assay type: cell-based
# Protocol: as §2
# [11] = tested on: HCV Genotype 1b, NS5B Mutation none; experiment: microbe, parasite or virus in culture; assay type: cell-based
# Protocol: as §2
# [12] = tested on: HCV Genotype 3a-2, NS5B Mutation none; experiment: microbe, parasite or virus in culture; assay type: cell-based
# Protocol: as §2
# iPS Cardiomyocytes = experiment: iPS Cardiomyocyte Assay; assay type: cell-based, human; conditions: 3 days, XTT
# Protocol: iPS Cardiomyocytes (Cellular Dynamics) were seeded in microliter plates at 1.5×10^4 cells per well. After 48-hr incubation, cells were washed and maintenance medium containing serially diluted TA was added in triplicate. After incubating for an additional 3 days, cell viability was measured by staining with XTT and CC50 values were calculated.
# [13] = Cytotoxicity by XTT staining in replicon cells; conditions: human
# Protocol: as §1
# Huh-7 luc/neo ET cells = experiment: Cytotoxicity by XTT staining in replicon cells; conditions: read-out: HCV Replicon CC50; XTT, 72 hours
# Protocol: as §1
# HCV S282T replicon = experiment: microbe, parasite or virus in culture; assay type: cell-based
# Protocol: (§3) A transient transfection assay was performed to determine the sensitivity of the […] of HCV to test compounds. Huh-7 cells were electroporated in the presence of RNA transcribed from wild type or S282T HCV replicon plasmids from the T7 promoter. The transfected cells were seeded in to 96-well plates at 7.5×10^3 cells per well in Dulbecco's Modified Eagle's medium. After 24 hr of incubation, medium was removed and replaced with fresh medium containing no or various concentrations of test compounds. Following an additional 96-hr incubation, the anti-HCV activity was measured by luciferase endpoint with Britelite™ Plus luminescence reporter gene kit (Perkin Elmer, Shelton, CT). Duplicate plates were treated and incubated in parallel for assessment of cellular toxicity by staining with the tetrazolium dye XTT.
# HCV wild type replicon = experiment: microbe, parasite or virus in culture; assay type: cell-based
# Protocol: as §3
# [14] = Hepatitis C virus, read-out: IC50 Value
# [15] = genotype 3a-1, no NS5B mutation
# [16] = genotype 1a, NS5B L159F and S282T
# [17] = Hepatitis C virus, 96 h, read-out: IC50 Value
# [18] = genotype 3a-2, no NS5B mutation
smiles,measurement,setting,value
"CC(C)OC(=O)[C@H](C)N[P@](=O)(OCC1O[C@@H](n2cnc3c(N(C)C4CC4)nc(N)nc32)[C@](C)(F)[C@@H]1O)Oc1ccccc1 (stereo partly drawn) [Compound 27, isopropyl ((((S)-(2R,3R,4R,5R)-5-(2-amino-6-(methylcyclopropanamino)-9H-purin-9-yl)-4-fluoro-3-hydroxy-4-methyltetrahydrofuran-2-yl)methoxy)-phenoxy-phosphoryl)-L-alaninate]",EC50,"[1]; Hepatitis C virus, read-out: EC50 in a replicon assay",5 nM
same,EC95,"[1]; Hepatitis C virus, Huh-7 luc/neo ET cells, 72 hours, luciferase, read-out: HCV Replicon EC50/EC95: EC95",25 nM
same,Fold increase in activity compared to parent nucleoside,[1]; Table 7,">1,100"
same,IC50,[2]; [14],4.2 nM
same,Fold Change in IC50 from Sofosbuvir,"[2]; genotype 1a, no NS5B mutation",15.0
same,Fold Change in IC95 from Sofosbuvir,"[2]; genotype 1a, no NS5B mutation",19.3
same,IC95 Value,"[2]; genotype 1a, no NS5B mutation",26.4 nM
same,IC50,[3]; [14],3.6 nM
same,Fold Change in IC50 from Sofosbuvir,"[3]; genotype 4a, no NS5B mutation",20.7
same,Fold Change in IC95 from Sofosbuvir,"[3]; genotype 4a, no NS5B mutation",17.9
same,IC95 Value,"[3]; genotype 4a, no NS5B mutation",38.1 nM
same,IC50,[4]; [14],3.1 nM
same,Fold Change in IC50 from Sofosbuvir,"[4]; genotype 2b, no NS5B mutation",14.4
same,Fold Change in IC95 from Sofosbuvir,"[4]; genotype 2b, no NS5B mutation",20.1
same,IC95 Value,"[4]; genotype 2b, no NS5B mutation",14.7 nM
same,IC50,[5]; [14],4.4 nM
same,Fold Change in IC50 from Sofosbuvir,[5]; [15],28.4
same,Fold Change in IC95 from Sofosbuvir,[5]; [15],27.2
same,IC95 Value,[5]; [15],25.4 nM
same,IC50,[6]; [14],2.9 nM
same,Fold Change in IC50 from Sofosbuvir,"[6]; genotype 2a, no NS5B mutation",7.9
same,Fold Change in IC95 from Sofosbuvir,"[6]; genotype 2a, no NS5B mutation",12.0
same,IC95 Value,"[6]; genotype 2a, no NS5B mutation",16.2 nM
same,cross-resistance to L159F mutant,[7],"neither 25, 27 nor 5-2 compound showed any evidence of cross-resistance"
same,IC50,[7]; [14],5.1 nM
same,Fold Change in IC50 from Sofosbuvir,"[7]; genotype 1a, NS5B L159F",22.3
same,Fold Change in IC95 from Sofosbuvir,"[7]; genotype 1a, NS5B L159F",29.5
same,IC95 Value,"[7]; genotype 1a, NS5B L159F",36.2 nM
same,cross-resistance to C316N mutant,[8],"neither 25, 27 nor 5-2 compound showed any evidence of cross-resistance"
same,IC50,[8]; [14],3.1 nM
same,Fold Change in IC50 from Sofosbuvir,"[8]; genotype 1b, NS5B C316N",23.5
same,Fold Change in IC95 from Sofosbuvir,"[8]; genotype 1b, NS5B C316N",28.7
same,IC95 Value,"[8]; genotype 1b, NS5B C316N",16.5 nM
same,cross-resistance to L159F and S282T mutant,[9],"neither 25, 27 nor 5-2 compound showed any evidence of cross-resistance"
same,IC50,[9]; [14],14.9 nM
same,Fold Change in IC50 from Sofosbuvir,[9]; [16],108.4
same,Fold Change in IC95 from Sofosbuvir,[9]; [16],119.7
same,IC95 Value,[9]; [16],141.6 nM
same,IC50,[10]; [17],5.6 nM
same,Fold Change in IC50 from Sofosbuvir,"[10]; genotype 4d, no NS5B mutation",16.7
same,Fold Change in IC95 from Sofosbuvir,"[10]; genotype 4d, no NS5B mutation",26.6
same,IC95 Value,"[10]; genotype 4d, no NS5B mutation",38.4 nM
same,IC50,[11]; [14],5 nM
same,Fold Change in IC50 from Sofosbuvir,"[11]; genotype 1b, no NS5B mutation",0.9
same,Fold Change in IC95 from Sofosbuvir,"[11]; genotype 1b, no NS5B mutation",22.2
same,IC95 Value,"[11]; genotype 1b, no NS5B mutation",28.9 nM
same,IC50,[12]; [14],4.5 nM
same,Fold Change in IC50 from Sofosbuvir,[12]; [18],27.5
same,Fold Change in IC95 from Sofosbuvir,[12]; [18],34.6
same,IC95 Value,[12]; [18],23.3 nM
same,cytotoxicity against iPS cardiomyocytes in vitro,iPS Cardiomyocytes,no cytotoxicity
same,CC50 at 72 h,[13],> 100000 nM
same,CC50,Huh-7 luc/neo ET cells,> 100000 nM
same,cross-resistance to S282T variant,HCV S282T replicon,"neither 25, 27, nor 5-2 compounds showed any evidence of cross-resistance"
same,IC50,HCV S282T replicon; [17],< 1 nM
same,Fold Change in IC50 from Sofosbuvir,HCV S282T replicon; NS5B Mutation S282T,>278
same,Fold Change in IC95 from Sofosbuvir,HCV S282T replicon; NS5B Mutation S282T,>84.7
same,IC95 Value,"HCV S282T replicon; NS5B Mutation S282T, transient assay, 96-hr",11.8 nM
same,IC95 Value,HCV wild type replicon,4.1 nM
same,IC50,HCV wild type replicon; [17],< 1 nM
same,Fold Change in IC50 from Sofosbuvir,HCV wild type replicon; NS5B Mutation None,>36.4
same,Fold Change in IC95 from Sofosbuvir,HCV wild type replicon; NS5B Mutation None,53.2
